How the values were obtained:
[1] = tested on: SMARCA4 mutated cancer cells; details: Vangamudi et al. Cancer Res 2015; cited from earlier work
SMARCA2 = molecular target: T1, SMARCA2 (Homo sapiens, UniProt P51531); assay: SMARCA2 HiBiT degradation assay in HeLa cells; assay type: cell-based; details: 18 hours, highest concentration 10 μM
T1 construct: SMARCA2-HiBiT knock-in Hela monoclonal cell (CS302366); host or cells: HeLa monoclonal cells with heterozygous HiBiT knock-in at the endogenous SMARCA2 locus
T1 sequence (P51531 whole entry): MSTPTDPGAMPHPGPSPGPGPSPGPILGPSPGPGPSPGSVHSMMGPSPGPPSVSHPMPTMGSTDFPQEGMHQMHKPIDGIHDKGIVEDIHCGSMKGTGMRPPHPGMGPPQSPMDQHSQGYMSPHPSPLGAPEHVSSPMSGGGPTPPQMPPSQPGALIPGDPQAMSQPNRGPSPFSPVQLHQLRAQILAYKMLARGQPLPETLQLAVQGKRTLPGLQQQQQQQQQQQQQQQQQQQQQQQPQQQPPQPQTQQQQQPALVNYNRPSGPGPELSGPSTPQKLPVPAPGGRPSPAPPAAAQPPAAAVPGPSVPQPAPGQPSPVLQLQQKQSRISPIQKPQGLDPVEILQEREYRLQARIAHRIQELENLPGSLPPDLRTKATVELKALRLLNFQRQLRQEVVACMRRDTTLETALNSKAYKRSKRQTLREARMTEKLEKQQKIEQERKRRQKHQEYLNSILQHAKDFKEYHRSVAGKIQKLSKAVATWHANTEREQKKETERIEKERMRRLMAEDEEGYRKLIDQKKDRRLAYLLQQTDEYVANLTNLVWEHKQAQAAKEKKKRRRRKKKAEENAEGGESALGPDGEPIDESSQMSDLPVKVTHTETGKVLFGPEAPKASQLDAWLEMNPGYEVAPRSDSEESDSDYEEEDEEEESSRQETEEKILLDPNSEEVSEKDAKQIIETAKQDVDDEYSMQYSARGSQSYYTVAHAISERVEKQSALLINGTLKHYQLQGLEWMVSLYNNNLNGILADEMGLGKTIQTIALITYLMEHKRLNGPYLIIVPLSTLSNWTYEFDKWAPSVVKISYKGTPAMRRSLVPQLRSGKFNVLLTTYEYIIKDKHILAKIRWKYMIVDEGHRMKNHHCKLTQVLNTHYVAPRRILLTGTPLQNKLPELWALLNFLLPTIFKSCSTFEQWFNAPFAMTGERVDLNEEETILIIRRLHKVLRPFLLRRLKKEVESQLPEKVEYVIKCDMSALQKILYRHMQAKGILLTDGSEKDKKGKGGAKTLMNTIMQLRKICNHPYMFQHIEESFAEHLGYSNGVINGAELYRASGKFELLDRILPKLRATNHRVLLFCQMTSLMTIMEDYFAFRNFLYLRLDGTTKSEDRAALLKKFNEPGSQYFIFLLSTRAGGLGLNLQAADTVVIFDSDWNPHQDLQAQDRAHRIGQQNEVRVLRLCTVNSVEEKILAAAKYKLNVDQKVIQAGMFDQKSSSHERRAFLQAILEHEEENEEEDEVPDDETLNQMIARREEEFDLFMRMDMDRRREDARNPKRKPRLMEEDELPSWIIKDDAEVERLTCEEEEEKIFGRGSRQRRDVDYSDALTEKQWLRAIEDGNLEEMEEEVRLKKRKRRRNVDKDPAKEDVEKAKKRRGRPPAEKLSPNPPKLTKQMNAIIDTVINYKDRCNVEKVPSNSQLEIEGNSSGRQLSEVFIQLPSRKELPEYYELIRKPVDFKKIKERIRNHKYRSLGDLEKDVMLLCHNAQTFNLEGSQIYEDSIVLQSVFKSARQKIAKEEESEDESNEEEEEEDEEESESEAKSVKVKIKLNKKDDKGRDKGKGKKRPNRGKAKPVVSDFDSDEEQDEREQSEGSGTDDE
Outline: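 HeLa cells carrying a heterozygous C-terminal HiBiT knock-in on SMARCA2 were seeded at 2500 cells/well. They were treated with 3-fold dilution series, top concentration 10 μM, for 18 h at 37 °C. Remaining SMARCA2-HiBiT was measured by Nano-Glo HiBiT lytic luminescence after 30-60 min at RT, followed by curve fitting.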

SMARCA4 = molecular target: T2, SMARCA4 (Homo sapiens, UniProt P51532); assay: SMARCA4 HiBiT degradation assay in HeLa cells; assay type: cell-based; details: 18 hours, highest concentration 10 μM
T2 construct: SMARCA4-HiBiT knock-in Hela monoclonal cell (CS3023226); host or cells: HeLa monoclonal cells with heterozygous HiBiT knock-in at the endogenous SMARCA4 locus
T2 sequence (P51532 whole entry): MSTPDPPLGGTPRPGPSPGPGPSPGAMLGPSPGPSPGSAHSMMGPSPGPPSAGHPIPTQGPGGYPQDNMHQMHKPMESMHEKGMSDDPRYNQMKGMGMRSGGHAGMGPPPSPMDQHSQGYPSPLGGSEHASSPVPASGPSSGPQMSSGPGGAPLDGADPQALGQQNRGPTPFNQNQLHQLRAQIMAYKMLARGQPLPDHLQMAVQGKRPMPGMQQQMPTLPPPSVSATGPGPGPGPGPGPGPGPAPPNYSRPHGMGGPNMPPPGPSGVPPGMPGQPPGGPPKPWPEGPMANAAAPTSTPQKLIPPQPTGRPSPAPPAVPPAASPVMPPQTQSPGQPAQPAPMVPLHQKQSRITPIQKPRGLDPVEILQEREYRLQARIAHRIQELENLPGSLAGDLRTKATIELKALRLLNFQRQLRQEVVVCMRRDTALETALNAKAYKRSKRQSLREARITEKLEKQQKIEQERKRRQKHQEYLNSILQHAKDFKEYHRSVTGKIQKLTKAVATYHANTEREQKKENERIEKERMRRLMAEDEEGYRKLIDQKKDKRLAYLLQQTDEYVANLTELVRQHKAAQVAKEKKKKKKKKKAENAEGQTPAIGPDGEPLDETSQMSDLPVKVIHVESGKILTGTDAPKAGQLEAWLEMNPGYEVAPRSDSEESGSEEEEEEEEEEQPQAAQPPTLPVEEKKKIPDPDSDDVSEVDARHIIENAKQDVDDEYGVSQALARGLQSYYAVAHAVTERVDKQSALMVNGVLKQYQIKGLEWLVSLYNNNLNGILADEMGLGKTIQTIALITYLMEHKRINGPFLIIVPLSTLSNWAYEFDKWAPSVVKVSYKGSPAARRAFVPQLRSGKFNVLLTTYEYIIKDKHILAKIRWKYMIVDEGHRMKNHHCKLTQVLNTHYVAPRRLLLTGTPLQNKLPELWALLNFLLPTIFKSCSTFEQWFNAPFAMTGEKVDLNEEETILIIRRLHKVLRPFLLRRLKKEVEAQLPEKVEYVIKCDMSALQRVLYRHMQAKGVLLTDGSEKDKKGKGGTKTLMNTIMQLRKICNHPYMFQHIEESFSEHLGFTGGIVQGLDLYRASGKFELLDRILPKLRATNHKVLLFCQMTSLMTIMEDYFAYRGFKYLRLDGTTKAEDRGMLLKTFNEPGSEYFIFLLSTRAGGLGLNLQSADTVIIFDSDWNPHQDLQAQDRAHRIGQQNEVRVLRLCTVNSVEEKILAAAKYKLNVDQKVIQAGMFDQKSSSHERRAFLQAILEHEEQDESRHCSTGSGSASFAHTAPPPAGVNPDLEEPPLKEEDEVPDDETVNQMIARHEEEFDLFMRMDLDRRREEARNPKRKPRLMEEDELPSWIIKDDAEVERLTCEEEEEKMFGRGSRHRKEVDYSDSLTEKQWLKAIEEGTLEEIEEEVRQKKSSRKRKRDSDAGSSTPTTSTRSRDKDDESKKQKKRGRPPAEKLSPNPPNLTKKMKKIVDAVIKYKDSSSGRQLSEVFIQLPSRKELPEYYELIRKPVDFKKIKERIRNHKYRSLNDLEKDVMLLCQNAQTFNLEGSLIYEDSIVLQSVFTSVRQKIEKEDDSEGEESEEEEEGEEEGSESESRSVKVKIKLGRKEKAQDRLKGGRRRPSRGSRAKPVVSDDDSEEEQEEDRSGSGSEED
Outline: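 HeLa monoclonal cells with HiBiT knocked into SMARCA4 were seeded at 2500 cells/well, dosed with compound and incubated 18 hours at 37° C. HiBiT signal reported remaining SMARCA4 protein, and values came from curve fitting.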

Compound	effects on cell proliferation inhibition [1]	DC50 (SMARCA2) [nM]	Dmax (SMARCA2) [%]	DC50 (SMARCA4) [nM]	Dmax (SMARCA4) [%]
O=C(/C=C/N1C[C@H]2C[C@@H]1CN2c1ccccn1)c1ccccc1O [PFI-3]	none to minor effects	–	–	–	–
Cc1nc(O[C@H]2CN3c4cc(-c5cccc(F)c5O)nnc4NC[C@@]3(C)C2)nc(C)c1CN1CCC(c2ccc3c(c2)C(=O)N([C@H]2CCC(=O)NC2=O)C3)CC1 [Example 78, (S)-3-(6-(1-((2-(((6aR,8R)-2-(3-fluoro-2-hydroxyphenyl)-6a-methyl-5,6,6a,7,8,9-hexahydropyrrolo[1′,2′:4,5]pyrazino[2,3-c]pyridazin-8-yl)oxy)-4,6-dimethylpyrimidin-5-yl)methyl)piperidin-4-yl)-1-oxoisoindolin-2-yl)piperidine-2,6-dione]	–	< 100	> 75	> 1000	< 50
O=C1CCC(N2Cc3ccc(N4CCN(Cc5cnc(O[C@H]6CN7c8cc(-c9cccc(F)c9O)nnc8NC[C@@]7(C(F)F)C6)c(Cl)c5)CC4)cc3C2=O)C(=O)N1 (stereo partly drawn) [Example 85, 3-(6-(4-((5-chloro-6-(((6aR,8R)-6a-(difluoromethyl)-2-(3-fluoro-2-hydroxyphenyl)-5,6,6a,7,8,9-hexahydropyrrolo[1′,2′:4,5]pyrazino[2,3-c]pyridazin-8-yl)oxy)pyridin-3-yl)methyl)piperazin-1-yl)-1-oxoisoindolin-2-yl)piperidine-2,6-dione]	–	< 100	> 75	< 100	50 to 75
Cc1c(O[C@H]2CN3c4cc(-c5cccc(F)c5O)nnc4NC[C@]3(C(F)F)C2)cnc(CN2CCN(c3ccc4c(c3)C(=O)N([C@H]3CCC(=O)NC3=O)C4)CC2)c1C [Example 46, (S)-3-(6-(4-((5-(((6aS,8R)-6a-(difluoromethyl)-2-(3-fluoro-2-hydroxyphenyl)-5,6,6a,7,8,9-hexahydropyrrolo [1′,2′:4,5]pyrazino[2,3-c]pyridazin-8-yl)oxy)-3,4-dimethylpyridin-2-yl)methyl)piperazin-1-yl)-1-oxoisoindolin-2-yl)piperidine-2,6-dione]	–	< 100	> 75	< 100	> 75
O=C1CC[C@H](N2Cc3ccc(N4CCN(Cc5ccc(O[C@H]6CN7c8cc(-c9cccc(F)c9O)nnc8NC[C@]7(C(F)F)C6)cn5)CC4)cc3C2=O)C(=O)N1 [Example 49, (S)-3-(6-(4-((5-(((6aS,8R)-6a-(difluoromethyl)-2-(3-fluoro-2-hydroxyphenyl)-5,6,6a,7,8,9-hexahydropyrrolo [1′,2′:4,5]pyrazino[2,3-c]pyridazin-8-yl)oxy)pyridin-2-yl)methyl)piperazin-1-yl)-1-oxoisoindolin-2-yl)piperidine-2,6-dione]	–	< 100	> 75	100 to 1000	< 50
Cc1cc(O[C@@H]2C[C@H]3CNc4nnc(-c5cccc(F)c5O)cc4N3C2)ccc1CN1CCC(c2ccc3c(c2)C(=O)N(C2CCC(=O)NC2=O)C3)CC1 (stereo partly drawn) [Example 37, 3-(6-(1-(4-(((6aS,8R)-2-(3-fluoro-2-hydroxyphenyl)-5,6,6a,7,8,9-hexahydropyrrolo[1′,2′:4,5]pyrazino[2,3-c]pyridazin-8-yl)oxy)-2-methylbenzyl)piperidin-4-yl)-1-oxoisoindolin-2-yl)piperidine-2,6-dione]	–	< 100	> 75	< 100	> 75
CC[C@@]12CNc3nnc(-c4cccc(F)c4O)cc3N1C[C@H](Oc1cnc(CN3CCN(c4ccc5c(c4)CN([C@H]4CCC(=O)NC4=O)C5)CC3)c(F)c1)C2 [Example 72, (S)-3-(6-(4-((5-(((6aR,8R)-6a-Ethyl-2-(3-fluoro-2-hydroxyphenyl)-5,6,6a,7,8,9-exahydropyrrolo[1′,2′:4,5]pyrazino[2,3-c]pyridazin-8-yl)oxy)-3-fluoropyridin-2-yl)methyl)piperazin-1-yl)-1-oxoisoindolin-2-yl)piperidine-2,6-dione]	–	< 100	> 75	100 to 1000	< 50
Cc1nc(CN2CCC(c3ccc4c(c3)C(=O)N([C@H]3CCC(=O)NC3=O)C4)CC2)cnc1O[C@H]1CN2c3cc(-c4cccc(F)c4O)nnc3NC[C@@]2(CF)C1 [Example 65, (S)-3-(6-(1-((5-(((6aR,8R)-2-(3-Fluoro-2-hydroxyphenyl)-6a-(fluoromethyl)-5,6,6a,7,8,9-hexahydropyrrolo[1′,2′:4,5]pyrazino[2,3-c]pyridazin-8-yl)oxy)-6-methylpyrazin-2-yl)methyl)piperidin-4-yl)-1-oxoisoindolin-2-yl)piperidine-2,6-dione]	–	< 100	> 75	100 to 1000	< 50
Cc1cc(O[C@@H]2C[C@@H]3CNc4nnc(-c5cc(F)cc(F)c5O)cc4N3C2)ncc1CN1CCC(c2ccc3c(c2)C(=O)N([C@H]2CCC(=O)NC2=O)C3)CC1 [Example 29, (S)-3-(6-(1-((6-(((6aR,8R)-2-(3,5-difluoro-2-hydroxyphenyl)-5,6,6a,7,8,9-hexahydropyrrolo[1′,2′:4,5]pyrazino[2,3-c]pyridazin-8-yl)oxy)-4-methylpyridin-3-yl)methyl)piperidin-4-yl)-1-oxoisoindolin-2-yl)piperidine-2,6-dione]	–	< 100	> 75	< 100	50 to 75
CC[C@@]12CNc3nnc(-c4cccc(F)c4O)cc3N1C[C@H](Oc1cc(C)c(CN3CCC(c4ccc5c(c4)C(=O)N(C4CCC(=O)NC4=O)C5)CC3)cn1)C2 (stereo partly drawn) [Example 106, 3-(6-(1-((6-(((6aR,8R)-6a-ethyl-2-(3-fluoro-2-hydroxyphenyl)-5,6,6a,7,8,9-hexahydropyrrolo[1′,2′:4,5]pyrazino[2,3-c]pyridazin-8-yl)oxy)-4-methylpyridin-3-yl)methyl)piperidin-4-yl)-1-oxoisoindolin-2-yl)piperidine-2,6-dione]	–	< 100	> 75	100 to 1000	< 50
Cc1cc(O[C@@H]2C[C@H]3CNc4nnc(-c5cccc(F)c5O)cc4N3C2)ccc1CN1CCN(c2ccc3c(c2)C(=O)N(C2CCC(=O)NC2=O)C3)CC1 (stereo partly drawn) [Example 36, 3-(6-(4-(4-(((6aS,8R)-2-(3-fluoro-2-hydroxyphenyl)-5,6,6a,7,8,9-hexahydro-pyrrolo[1′,2′:4,5]pyrazino[2,3-c]pyridazin-8-yl)oxy)-2-methylbenzyl)piperazin-1-yl)-1-oxoisoindolin-2-yl)piperidine-2,6-dione]	–	< 100	> 75	< 100	> 75
CC[C@@]12CNc3nnc(-c4cccc(F)c4O)cc3N1C[C@H](Oc1cnc(CN3CCN(c4ccc5c(c4)C(=O)N([C@H]4CCC(=O)NC4=O)C5)CC3)c(C)n1)C2 [Example 57, (S)-3-(6-(4-((5-(((6aR,8R)-6a-ethyl-2-(3-fluoro-2-hydroxyphenyl)-5,6,6a,7,8,9-hexahydropyrrolo[1′,2′:4,5]pyrazino[2,3-c]pyridazin-8-yl)oxy)-3-methylpyrazin-2-yl)methyl)piperazin-1-yl)-1-oxoisoindolin-2-yl)piperidine-2,6-dione]	–	< 100	> 75	100 to 1000	< 50
CC[C@@]12CNc3nnc(-c4cccc(F)c4O)cc3N1C[C@H](Oc1ncc(CN3CCN(c4ccc5c(c4)C(=O)N(C4CCC(=O)NC4=O)C5)CC3)c(C)c1F)C2 (stereo partly drawn) [Example 61, 3-(6-(4-((6-(((6aR,8R)-6a-ethyl-2-(3-fluoro-2-hydroxyphenyl)-5,6,6a,7,8,9-hexahydropyrrolo[1′,2′:4,5]pyrazino[2,3-c]pyridazin-8-yl)oxy)-5-fluoro-4-methylpyridin-3-yl)methyl)piperazin-1-yl)-1-oxoisoindolin-2-yl)piperidine-2,6-dione]	–	< 100	> 75	< 100	50 to 75
CC[C@]12CNc3nnc(-c4cccc(Cl)c4O)cc3N1C[C@H](Oc1cnc(CN3CCC(c4ccc5c(c4)C(=O)N([C@H]4CCC(=O)NC4=O)C5)CC3)c(Cl)c1)C2 [Example 99, (S)-3-(6-(1-((3-chloro-5-(((6aS,8R)-2-(3-chloro-2-hydroxyphenyl)-6a-ethyl-5,6,6a,7,8,9-hexahydropyrrolo[1′,2′:4,5]pyrazino[2,3-c]pyridazin-8-yl)oxy)pyridin-2-yl)methyl)piperidin-4-yl)-1-oxoisoindolin-2-yl)piperidine-2,6-dione]	–	< 100	> 75	< 100	50 to 75

Reference: patent US20240165244A1 (Prelude Therapeutics Incorporated, priority 2022, published 2024)
